Measured values from paper PMC5674802 (Molecular cell, 2017).

Biological target: RagA-RagC heterodimer, RagC nucleotide site (Homo sapiens, UniProt Q9HB90)
Experiment: UV crosslinking of radiolabelled nucleotide, SDS-PAGE autoradiography
Type: binding

RagA-RagC heterodimer, RagC nucleotide site, sequence (Q9HB90 2-399): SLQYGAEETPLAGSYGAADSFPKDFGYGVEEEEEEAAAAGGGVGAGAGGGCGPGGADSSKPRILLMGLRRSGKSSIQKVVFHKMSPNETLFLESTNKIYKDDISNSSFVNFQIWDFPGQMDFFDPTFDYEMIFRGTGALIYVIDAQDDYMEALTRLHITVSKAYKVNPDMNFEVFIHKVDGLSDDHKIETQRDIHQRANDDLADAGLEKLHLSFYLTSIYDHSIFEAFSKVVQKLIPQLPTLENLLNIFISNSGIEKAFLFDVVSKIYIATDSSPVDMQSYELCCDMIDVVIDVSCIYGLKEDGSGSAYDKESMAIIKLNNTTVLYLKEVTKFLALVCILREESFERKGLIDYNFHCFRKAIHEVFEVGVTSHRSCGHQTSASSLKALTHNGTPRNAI
RagA-RagC heterodimer, RagC nucleotide site, sequence (Q7L523 whole entry partner): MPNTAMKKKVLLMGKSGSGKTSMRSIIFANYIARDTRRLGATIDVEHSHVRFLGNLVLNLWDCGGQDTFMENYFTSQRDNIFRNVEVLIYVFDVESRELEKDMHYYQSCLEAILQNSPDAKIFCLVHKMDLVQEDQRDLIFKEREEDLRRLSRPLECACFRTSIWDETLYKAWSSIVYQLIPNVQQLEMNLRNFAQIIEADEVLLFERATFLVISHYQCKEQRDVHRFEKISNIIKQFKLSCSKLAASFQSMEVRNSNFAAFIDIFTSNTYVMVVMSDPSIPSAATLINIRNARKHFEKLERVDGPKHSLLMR

Kd: 11 nM
Compound: Nc1nc2c(ncn2[C@@H]2O[C@H](COP(=O)(O)OP(=O)(O)OP(=O)(O)O)[C@@H](O)[C@H]2O)c(=O)[nH]1 [GTP]
